According to patent publication US11141394B2, “Carbon dioxide external preparation” (priority 2017, dated 2021):

Key:
[1] = tested on: pain of de Quervain syndrome; test: Pain relief test (de Quervain syndrome); assay type: in vivo, human; settings: person one; oral, earlier treatment
Protocol: This test was conducted by a physical therapist. subject one was a person who has been suffering from de Quervain syndrome. Oral anti-inflammatory loxoprofen sodium had shown no effect on the pain of de Quervain syndrome. They had been suffering from sharp pain in the short rollical extensor muscle and the […] of the radial aspect of the hand joint. […] Therefore, pain relief effect of a carbon dioxide external preparation of the present invention was obvious.

[2] = tested on: pain and knee stiffness of rheumatism; test: Pain and knee stiffness of rheumatism improvement test; assay type: in vivo, human; settings: person two; oral, earlier treatment
Description: Therefore, pain and knee stiffness of rheumatism improvement effect of a carbon dioxide external preparation of the present invention was obvious.

CC(C(=O)O)c1ccc(CC2CCCC2=O)cc1 (centres unmarked) [loxoprofen sodium]
effect on the pain of de Quervain syndrome [1]: no effect
pain and knee stiffness of rheumatism [2]: had not been improved
